US7247615B2, “Peptide agonists of prostate-specific antigen and uses therefor” (priority 2001, dated 2007)
Where “and” joins values, the source holds several entries; their conditions need not be identical. Equal values may be shown once.

Key:
HLA-A2 = biological target: T1, HLA-A2 (Homo sapiens, UniProt P04439, D140Y/D185E/D98H/E176V/E277Q/G131W/G231S/I119V/I121R/I166T/I218V/L300P/L318F/N151K/N90K/P208A/P217A/Q86G/Q94H/R138H/R169H/T345S); assay: Peptide binding to HLA-A2 on T2A2 cells (flow cytometry); conditions: peptide 0 to 50 μg/ml, FIG. 1A
T1 construct: endogenous in cells; host or cells: T2A2 / 174CEM-T2 (T2) transport deletion mutant cell line
Procedure: Single-color flow cytometric analysis. The method for single-color flow cytometric analysis was described previously (F. Guadagni et al., 1990, Cancer Res. 50:6248–6255). Briefly, cells were washed three times with cold Ca^2+ and Mg^2+-free DPBS and then stained for 1 h with mAb against HLA-A2 (A2,69, One Lambda, Inc., Canoga Park, Calif.), using 10 μg of the 1× working dilution per 10^6 cells. Mineral oil plasmacytoma-104E (Cappel/Organon Teknika Corp., West Chester, Pa.) was used as an isotype control. The cells were washed three times and incubated with a 1:100 dilution of fluorescein isothiocyanate (FITC)-labeled goat anti-mouse immunoglobulin (IgG) (Kirkegaard and Perry Laboratories, Gaithersburg, Md.). The cells were immediately analyzed using a Becton Dickinson FACScan equipped with a blue laser with an excitation of […] at 488 nm. Data were gathered from 10,000 live cells, stored and used to generate results.
Peptide Binding to HLA-A2. […] Briefly, 1×10^6 cells in serum-free Iscove's modified Dulbecco's complete medium were incubated with peptides at a concentration of 50 μg/ml in 24 well culture plates at 37° C. in 5% CO2. Flow cytometry for peptide binding was performed using T2 cells and single-color analysis. After cells were washed three times in DPBS, as described above, they were incubated for 1 h with HLA-A2 specific MAb (One Lambda, Inc.) using 10 μg of a 1× working dilution per 10^6 cells. UPC-10 (Cappel/Organon Teknika) was used as isotype control. The cells were washed three times and incubated with 1:100 dilution of FITC-labeled anti-mouse IgG (Becton Dickinson). Analysis was conducted with the FACScan, as described above. Cells were maintained on ice during all cell preparation and staining.
The four analogs were then tested for binding to the HLA-A2 positive T2A2 cells as described in the Examples section. The NCA peptide was previously shown to not bind to HLA-A2, and was used as a negative […] control. Peptides were added to T2A2 cells at concentrations of 0 to 50 μg/ml.

CD8+ cells (T-PSA-3) = assay: Apoptosis (TUNEL) assay of peptide-stimulated T cells; type: cell-based, human; conditions: T cells stimulated with peptide-pulsed autologous B cells, IVS-5, TUNEL
Text: FIGS. 5A–5C. DNA fragmentation in peptide stimulated T cells using the TUNEL assay. Apoptosis of CD8^+ cells activated by PSA peptide pulsed autologous B cells. FIG. 5A: T-PSA-3 cells stimulated with B cells with no peptide; FIG. 5B: T-PSA-3 cells stimulated with B cells pulsed with PSA-3 peptide; FIG. 5C: T-PSA-3 cells stimulated with B cells pulsed with PSA-3A peptide. Numbers in each histogram indicate percent of apoptotic cells (cells above line) as described in the Examples section.
Apoptosis Assay. T cells were incubated for 48 h in the presence of peptide-pulsed autologous B cells as described in the IVS procedure, above, and replated to 96-well plates for 24 h. Apoptosis was analyzed using the terminal deoxynucleotidyl transferase-mediated nick-end labeling (TUNEL) assay (Y. Gavrieli et al., 1992, J. Cell Biol. 119:493–501).

T-PSA-3 cells = assay: Cytometric Bead Array cytokine production by peptide-stimulated T cells; type: cell-based, human; conditions: T-PSA-3 + peptide-pulsed autologous B cells, 24 h supernatant
Procedure: (§1) Detection of Cytokines. Supernatant of T cells exposed for 24 h to peptide-pulsed infected DC, rV-PSA infected DC, or rV-PSA-3A infected DC, in IL-2-free medium at various responder: stimulator ratios, were screened for secretion of IFN-γ using an ELISA kit (R & D Systems, Minneapolis, Minn.). The results were calculated as pg/ml. A Cytometric Bead Array (CBA) system (BD PharMingen, San Diego, Calif.) was also used to determine the secretion of multiple cytokines by specific T cell lines. The CBA system uses the fluorescence detection by flow cytometry to measure soluble analytes in a particle-based immunoassay. The BD human Th1/Th2 cytokine CBA Kit was employed to measure IL-2, IL-4, IL-5, IL-10, TNF-α, and IFN-γ protein levels in a single sample. The cytokine capture beads were mixed with PE-conjugated detection antibodies and then incubated with recombinant cytokine standards or test samples to form sandwich complexes. The samples results were generated in graphical and tabular format using BD CBA analysis software. The results were calculated as pg/ml.
The cytokine profile of T cells stimulated with APCs pulsed with either the PSA-3 or the PSA-3A peptide was then analyzed. The T cell line derived using the PSA-3 peptide was used in these studies, and the APCs used were autologous B cells. A Cytometric Bead Array (CBA) assay was used for analysis (see Examples section) using supernatant fluids obtained 24 h after stimulation. FIGS. 6A–6C illustrate […] of the 10 internal standards used for the calibration of the results obtained in this assay. FIGS. 6D–6F show the levels of each of six cytokines produced by T cells stimulated with APCs pulsed with no peptide, PSA-3A peptide, and PSA-3 peptide, respectively. […] The results obtained for IL-5 will be discussed below (Conclusions section).

T-PSA-3A cells = assay: IFN-γ production by T cell line stimulated with peptide-pulsed DCs (ELISA); type: cell-based, human; conditions: peptide 25 μg/ml
Procedure: as §1
Table 2: Production of IFN-γ by a T cell line stimulated with PSA-3 or agonist PSA-3A peptides. The PSA-specific T cell line T-PSA-3A was used as effector cells at IVS-3. T-PSA-3A cells were stimulated with irradiated HLA-A2 positive allogeneic DCs either pulsed with PSA-3 or PSA-3A peptide at a concentration of 25 μg/ml and an effector-to-APC ratio of 10:1. After 24-h culture supernatants were collected and screened for the secretion of IFN-γ. APC=antigen […].

DCs = assay: IL-12 production by peptide-pulsed DCs in the presence of T cells; type: cell-based, human
Procedure: It has been previously shown that the activation of T cells by peptidepulsed DCs is related to the level of IL-12 production by the DCs. Studies were therefore conducted to determine the levels of IL-12 production by DCs pulsed with PSA-3 and PSA-3A peptides in the presence of T cells. […] When DCs pulsed with the PSA3A peptide were incubated with both T cell lines, the DCs incubated with the T-PSA-3A line again produced higher levels of IL-12 than those peptide-pulsed DCs incubated with the T cell line T-PSA-3 (Table 3).

[1] = test system: HLA-A2/K^b transgenic mice; assay: Immunization of HLA-A2.1/Kb transgenic mice with peptide-pulsed DCs, IFN-γ production by T cells; type: in vivo, mouse; conditions: 24 h
Text: Transgenic Mice. HLA-A2.1/K^b transgenic mice were kindly provided by Dr. L. Sherman (Scripps Laboratories, San Diego, Calif.). Transgenic mice express the product of the HLA-A2.1/Kb chimeric gene in which the alpha-3 domain of the heavy chain is replaced by mouse H-2/K^b domain, but the HLA-A2.1 alpha-1 and alpha-2 domains are unaltered (A. Vitiello et al., 1991, J. Exp. Med. 173:1007–1015; V. H. Engelhard et al., 1991, J. Immunol. 46:1226–1232).
In Vivo Immunization and Murine T cell Cultures. Three groups of HLA-A2.1/K^b transgenic mice (three mice per group) were immunized s.c. (subcutaneously) in the base of the tail with PSA-3 peptide-pulsed HLA-A2.1/K^b DC, PSA-3A peptide-pulsed DCs from HLA-A2.1/K^b transgenic mice, or DCs only. Peptides were used at a concentration of 50 μg/ml and DCs were used at 1×10^6 cell/mouse/injection. A total of three injections were given to each animal, 2 weeks apart. Mice injected with DCs only were used as controls. Mice were sacrificed 7 days after the last injection, and spleen cells were restimulated in vitro with 25 μg/ml of PSA-3 or PSA3A peptide with irradiated syngeneic spleen cell for 6 days. The cytokine production of these bulk cultures was tested. Peptide-pulsed Jurkat A2 (JA2 K^b) cells were used as stimulator cells. Jurkat 0201 K^b cells are stable transfectants of the human T cell leukemia line, Jurkat, which express the product of HLA-A0201K^b climeric gene (L. A. Sherman et al., 1992, Science 258:815–818).
The HLA-A2/K^b transgenic mouse has been previously reported to aid in the determination of the immunogenicity of HLA-A2 peptides for humans. This in vivo system was thus employed to further analyze and compare the immunogenicity of the PSA-3A peptide with that of the native PSA-3 peptide. DCs from the HLA-A2/K^b transgenic mice were pulsed with either the PSA-3 or the PSA-3A peptide and used to vaccinate HLA-A2b mice. DCs alone (no peptide) were also used as a control vaccine. After three vaccinations at 2-week intervals, T cells were isolated from splenocytes obtained 2 weeks after the last vaccination. The T cells were then incubated with Jurkat A2/K^b cells pulsed with the PSA-3 peptide, the PSA-3A peptide, or no peptide, and production of INF-γ was measured from supernatants after 24 h.

Sequence	Binding to HLA-A2 (relative fluorescence, MFI) (HLA-A2)	Apoptotic CD8+ cells (CD8+ cells (T-PSA-3))	Production of IL-4 (T-PSA-3 cells)	Production of IL-10 (T-PSA-3 cells)	Production of TNF-α (T-PSA-3 cells)	PRODUCTION OF IFN-γ (T-PSA-3A cells; APC DCs, T-PSA-3A T cells present, effector-to-APC 10:1, 24 h, IVS-3)	PRODUCTION OF IFN-γ (T-PSA-3A cells; APC DCs, no T cell, 24 h)	PRODUCTION OF IFN-γ (T-PSA-3A cells; no APC, T-PSA-3A T cells present, 24 h)	IL-12 PRODUCTION (DCs; APC DC, T cell line T-PSA-3, peptide 25 μg/ml, 10:1, 24 h, IVS-4)	IL-12 PRODUCTION (DCs; APC DC, T cell line T-PSA-3A, peptide 25 μg/ml, 10:1, 24 h, IVS-4)	IL-12 PRODUCTION (DCs; no APC, T cell line T-PSA-3, peptide 25 μg/ml, 24 h)	IL-12 PRODUCTION (DCs; no APC, T cell line T-PSA-3A, peptide 25 μg/ml, 24 h)	Production of IFN-γ ([1]; label = peptide pulsed on immunizing DCs, Jurkat A2/K^b cells pulsed with PSA-3A (25 μg/ml))	Production of IFN-γ ([1]; label = peptide pulsed on immunizing DCs, Jurkat A2/K^b cells with no peptide)	Production of IFN-γ ([1]; label = peptide pulsed on immunizing DCs, T cells restimulated with Jurkat A2/K^b cells pulsed with PSA-3 (25 μg/ml))	Production of IFN-γ ([1]; mice immunized with DCs (no peptide), label = peptide pulsed on Jurkat A2/K^b cells)
YISNDVCAQV (SEQ ID NO:4) [Y154]	higher levels than PSA-3	–	–	–	–	–	–	–	–	–	–	–	–	–	–	–
VISNDVCAQV (SEQ ID NO:1) [PSA-3, reference compound]	–	4.9% and 4.5%	Low or undetectable levels	Low or undetectable levels	No TNF-α could be detected	280 pg/mL	<15 pg/mL	<15 pg/mL	5.0 pg/ml/5 × 10^5 DC	10.5 pg/ml/5 × 10^5 DC	<0.6 pg/ml/5 × 10^5 DC	<0.6 pg/ml/5 × 10^5 DC	1,969.0 pg/ml/10^6 cells	<37.0 pg/ml/10^6 cells	1,908.0 pg/ml/10^6 cells	<37.0 pg/ml/10^6 cells
VISNDVCAQL (SEQ ID NO:2) [1–163]	no binding	–	–	–	–	–	–	–	–	–	–	–	–	–	–	–
